Results as given in patent US11040981B2, “Pyrrolotriazine compounds and methods of inhibiting TAM kinases” (Syros Pharmaceuticals, Inc., priority 2017, dated 2021).

How the values were obtained:
MERTK = target: T1, MERTK (Homo sapiens, UniProt Q12866); test: TR-FRET kinase activity assay, MERTK; type: biochemical; details: for IC50: TR-FRET activity assay, ATP at Km, 60 minutes, read-out: Mer IC50; for FLT3/Mer ratio (FLT3 IC50/Mer IC50): ratio calculated as FLT3 IC50/Mer IC50
T1 sequence (Q12866 21-999): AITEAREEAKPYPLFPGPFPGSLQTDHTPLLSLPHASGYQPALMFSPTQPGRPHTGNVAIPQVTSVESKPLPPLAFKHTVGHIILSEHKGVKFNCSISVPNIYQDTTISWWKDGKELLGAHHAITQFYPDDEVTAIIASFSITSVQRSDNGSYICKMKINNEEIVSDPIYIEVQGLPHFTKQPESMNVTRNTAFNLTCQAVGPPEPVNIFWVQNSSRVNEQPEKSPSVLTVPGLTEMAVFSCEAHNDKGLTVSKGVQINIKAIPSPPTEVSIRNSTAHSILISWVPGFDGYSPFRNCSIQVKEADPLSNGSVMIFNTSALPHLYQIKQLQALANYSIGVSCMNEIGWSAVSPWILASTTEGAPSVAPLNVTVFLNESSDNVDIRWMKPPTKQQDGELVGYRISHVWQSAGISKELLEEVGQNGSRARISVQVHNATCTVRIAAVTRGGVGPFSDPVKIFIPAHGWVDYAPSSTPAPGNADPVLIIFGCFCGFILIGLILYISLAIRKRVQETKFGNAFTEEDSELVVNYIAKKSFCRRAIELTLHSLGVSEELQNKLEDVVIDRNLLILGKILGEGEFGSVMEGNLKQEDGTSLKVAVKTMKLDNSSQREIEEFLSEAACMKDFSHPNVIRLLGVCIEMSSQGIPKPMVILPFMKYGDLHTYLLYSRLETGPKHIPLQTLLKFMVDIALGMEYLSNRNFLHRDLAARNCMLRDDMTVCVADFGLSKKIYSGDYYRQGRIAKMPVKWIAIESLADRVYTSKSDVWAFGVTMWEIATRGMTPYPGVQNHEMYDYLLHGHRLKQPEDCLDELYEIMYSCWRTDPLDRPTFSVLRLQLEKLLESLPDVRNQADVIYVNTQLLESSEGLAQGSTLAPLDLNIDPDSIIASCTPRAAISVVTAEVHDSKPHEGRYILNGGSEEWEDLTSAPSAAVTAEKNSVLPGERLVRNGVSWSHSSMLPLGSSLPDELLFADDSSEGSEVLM
Procedure, shortened: (§1)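 IC50 reflects the drop in TR-FRET between Eu anti-phosphotyrosine antibody and labelled peptide after a 60-minute room-temperature reaction. Buffer was 50 mM HEPES pH 7.5 with 10 mM MgCl2, 1 mM EGTA, 0.01% Brij 35 and 1 mM DTT, with ATP at Km per enzyme and EDTA quench.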

FLT3 = target: T2, FLT3 (Homo sapiens, UniProt P36888); test: TR-FRET kinase activity assay, FLT3; type: biochemical; details: ATP at Km, 60 minutes
T2 sequence (P36888 27-993): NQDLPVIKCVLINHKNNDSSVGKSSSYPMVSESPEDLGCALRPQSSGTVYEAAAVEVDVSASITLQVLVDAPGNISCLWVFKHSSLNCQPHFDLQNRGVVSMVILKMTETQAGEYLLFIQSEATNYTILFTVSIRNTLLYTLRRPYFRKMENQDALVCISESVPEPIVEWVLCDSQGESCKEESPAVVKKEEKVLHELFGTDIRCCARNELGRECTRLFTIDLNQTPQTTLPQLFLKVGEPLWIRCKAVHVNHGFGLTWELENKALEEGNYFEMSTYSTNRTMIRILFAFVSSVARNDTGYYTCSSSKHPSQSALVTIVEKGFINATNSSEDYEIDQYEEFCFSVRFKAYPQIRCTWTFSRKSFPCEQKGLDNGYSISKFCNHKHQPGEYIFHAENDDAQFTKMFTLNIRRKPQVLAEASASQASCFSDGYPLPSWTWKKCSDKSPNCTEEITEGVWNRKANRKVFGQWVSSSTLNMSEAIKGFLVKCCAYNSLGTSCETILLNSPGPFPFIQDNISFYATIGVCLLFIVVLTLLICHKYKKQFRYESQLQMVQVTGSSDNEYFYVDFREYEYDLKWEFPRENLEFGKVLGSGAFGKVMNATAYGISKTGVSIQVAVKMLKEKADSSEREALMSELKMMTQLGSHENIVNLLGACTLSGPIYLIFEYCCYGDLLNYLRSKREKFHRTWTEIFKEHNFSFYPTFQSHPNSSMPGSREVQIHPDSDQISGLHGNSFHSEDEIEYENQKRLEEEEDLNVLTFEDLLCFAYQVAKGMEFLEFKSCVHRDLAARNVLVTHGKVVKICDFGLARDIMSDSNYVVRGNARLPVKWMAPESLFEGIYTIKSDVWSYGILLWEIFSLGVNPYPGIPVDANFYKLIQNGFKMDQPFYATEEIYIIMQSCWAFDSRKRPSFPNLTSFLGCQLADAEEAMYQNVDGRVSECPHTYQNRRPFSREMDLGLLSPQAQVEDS
Procedure, shortened: as §1

IC50 (MERTK) [nM] | FLT3/Mer ratio (FLT3 IC50/Mer IC50) (MERTK) | IC50 (FLT3) [nM] | SMILES
≤ 100 | +++ (“+++” represents a ratio of >100) | 1000 to 10000 | COC[C@H](C)Nc1ncc2c(-c3conc3C)cc([C@H]3CC[C@H](O)CC3)n2n1 [Compound 508]
≤ 100 | +++ (“+++” represents a ratio of >100) | 1000 to 10000 | COC[C@H](C)Nc1ncc2c(-c3ccnc(N4CCc5nc(C)sc5C4)c3)cc([C@H]3CC[C@H](O)CC3)n2n1 [Compound 509]
